Experimental data as given in ChEMBL document CHEMBL1155852, “Novel inhibitors of anthrax edema factor” (Bioorg Med Chem, 2008).
Active and inactive are the calls of the source. The calls are words filed in the database; no cut-off is given here.

Columns and labels:
[1] = target: T1, Calmodulin-sensitive adenylate cyclase (Bacillus anthracis, UniProt P40136); assay: Inhibition of Bacillus anthracis edema factor-induced cAMP secretion in mouse RAW264.7 cells after 4 hrs by ELISA; format: cell-based
T1 sequence (P40136 whole entry): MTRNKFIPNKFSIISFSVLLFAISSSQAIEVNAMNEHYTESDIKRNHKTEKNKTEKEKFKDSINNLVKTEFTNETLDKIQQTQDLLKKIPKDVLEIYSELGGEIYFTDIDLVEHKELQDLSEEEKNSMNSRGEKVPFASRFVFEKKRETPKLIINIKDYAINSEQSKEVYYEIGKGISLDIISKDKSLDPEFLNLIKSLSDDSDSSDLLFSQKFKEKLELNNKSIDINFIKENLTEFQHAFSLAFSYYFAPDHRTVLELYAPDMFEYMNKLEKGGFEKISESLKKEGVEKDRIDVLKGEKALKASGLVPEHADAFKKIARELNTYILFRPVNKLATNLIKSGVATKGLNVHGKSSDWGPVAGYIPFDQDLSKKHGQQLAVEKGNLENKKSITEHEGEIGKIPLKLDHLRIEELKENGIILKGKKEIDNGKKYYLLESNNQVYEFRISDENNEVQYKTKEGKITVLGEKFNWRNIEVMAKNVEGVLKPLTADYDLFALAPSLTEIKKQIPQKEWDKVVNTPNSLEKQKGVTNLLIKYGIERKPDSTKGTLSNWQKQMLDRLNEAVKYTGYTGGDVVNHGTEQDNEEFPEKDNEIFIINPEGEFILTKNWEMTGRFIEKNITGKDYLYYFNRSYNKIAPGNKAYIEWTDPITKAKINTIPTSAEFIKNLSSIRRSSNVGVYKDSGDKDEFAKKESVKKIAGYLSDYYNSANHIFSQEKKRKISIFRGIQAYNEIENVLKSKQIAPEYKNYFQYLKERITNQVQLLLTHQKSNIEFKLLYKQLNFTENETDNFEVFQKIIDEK

[2] = target: T2, Calmodulin-sensitive adenylate cyclase (Bacillus anthracis) (UniProt P40136); assay: Inhibition of Bacillus anthracis edema factor-induced cAMP secretion in mouse RAW264.7 cells at 100 uM after 4 hrs by ELISA; format: cell-based
T2 sequence (whole entry): T1 sequence (P40136 whole entry)

| Structure (SMILES) | IC50 [1] | Activity [2] |
| --- | --- | --- |
| O=C(O)c1cccc(NC(=O)c2cccc3c2C(=O)c2ccccc2-3)c1 | 1830 nM | – |
| COc1cccc([C@H]2Nc3ccc(C(=O)O)cc3[C@@H]3C=CC[C@H]23)c1 | 1730 nM | – |
| CCCCC[C@H](O)/C=C/[C@H]1[C@H](n2ccnc2)CC(=O)[C@@H]1C/C=C\CCCC(=O)O | – | Active |
| O=C(O)c1ccc(/N=C/c2c3ccccc3cc3ccccc23)cc1O | 8500 nM | – |
